System: SARS-CoV-2
Assay: microbe, parasite or virus in culture
Conditions: Severe acute respiratory syndrome coronavirus 2, Vero C1008, 48 h

SMILES | IC50 | IC50 (read-out: pIC50 (converted))
C[C@]12CC[C@H]3[C@@H](CCC4=CC(=O)CC[C@@H]43)[C@@H]1CC[C@@H]2O [NANDROLONE] | > 20 µM | > 20 µM
CC(C)OC(=O)[C@H](C)N[P@](=S)(OC[C@H]1O[C@@H](n2ccc(=O)[nH]c2=O)[C@](C)(O)[C@@H]1O)Oc1ccccc1 | > 20 µM | > 20 µM
Nc1c2ccccc2nc2ccccc12 [AMINACRINE] | > 20 µM | > 20 µM
CC(=O)NC[C@H]1CN(c2ccc(-c3ccc(CNCc4cnn[nH]4)cc3)c(F)c2)C(=O)O1 [RADEZOLID] | > 20 µM | > 20 µM
N/C(=N\C(=O)c1nc(Cl)c(N)nc1N)NCc1ccccc1 [BENZAMIL] | > 20 µM | > 20 µM
C[C@@H](N)[C@@H](O)c1ccccc1 [(1S,2R)-PHENYLPROPANOLAMINE] | > 20 µM | > 20 µM
CCNC(=O)[C@H]1O[C@@H](n2cnc3c(N)nc(C#CC[C@H]4CC[C@H](C(=O)OC)CC4)nc32)[C@H](O)[C@@H]1O [APADENOSON] | > 50.1 µM | > 50.1 µM
CN(C)[C@@H]1C(O)=C(C(N)=O)C(=O)[C@@]2(O)C(O)=C3C(=O)c4c(O)cccc4[C@@](C)(O)[C@H]3[C@H](O)[C@@H]12 [OXYTETRACYCLINE] | > 20 µM | > 20 µM
CC(=O)OCC(=O)[C@@]12N=C(C)O[C@@H]1C[C@H]1[C@@H]3CCC4=CC(=O)C=C[C@]4(C)[C@H]3[C@@H](O)C[C@@]12C [DEFLAZACORT] | > 20 µM | > 20 µM
CCOC(=O)C1=C(CN2CCOCC2)NC(c2nccs2)=N[C@@H]1c1ccc(F)cc1Br | > 20 µM | > 20 µM
CC(C)(C)OC(=O)c1ncn2c1[C@@H]1CCCN1C(=O)c1c(Br)cccc1-2 [BRETAZENIL] | > 20 µM | > 20 µM
CC1(C)O[C@@H]2C[C@H]3[C@@H]4C[C@H](F)C5=CC(=O)C=C[C@]5(C)[C@H]4[C@@H](O)C[C@]3(C)[C@]2(C(=O)CO)O1 [FLUNISOLIDE] | > 20 µM | > 20 µM
COc1ccc(CCN(C)CCCC2(c3ccc(OC)c(OC)c3)S(=O)(=O)CCCS2(=O)=O)cc1OC | > 20 µM | > 20 µM
Cc1cccc(Oc2cnc(=O)[nH]c2)c1 [TOLIMIDONE] | > 20 µM | > 20 µM
O=C1NC(O)CCN1[C@@H]1O[C@H](CO)[C@@H](O)[C@H]1O (stereo partly specified) [TETRAHYDROURIDINE] | > 20 µM | > 20 µM
CC1CC(C)C(=O)C(C(O)CC2CC(=O)NC(=O)C2)C1 (stereo unspecified) | > 20 µM | > 20 µM
CC(C)(C)C(=O)NCCCC(=O)O [PIVAGABINE] | > 20 µM | > 20 µM
COc1cc(NS(C)(=O)=O)ccc1Nc1c2ccccc2nc2ccccc12 [AMSACRINE] | > 20 µM | > 20 µM
CC1(C)OC(=O)NC1=O [DIMETHADIONE] | > 20 µM | > 20 µM
CC(C)[C@H](N/C(=N\S(=O)(=O)c1ccc(Cl)cc1)N1C[C@H](c2ccccc2)C(c2ccc(Cl)cc2)=N1)C(N)=O | > 20 µM | > 20 µM
CC[C@]12CCCN3CCc4c(n(c5ccccc45)[C@@](O)(C(=O)OC)C1)[C@@H]32 [VINCAMINE] | > 20 µM | > 20 µM
Cc1c(-c2ccccc2)oc2c(C(=O)OCCN3CCCCC3)cccc2c1=O [FLAVOXATE] | > 20 µM | > 20 µM
CC1(C)CCC(C)(C)c2cc(NC(=O)c3ccc(C(=O)O)cc3)ccc21 [TAMIBAROTENE] | > 20 µM | > 20 µM

SMILES | IC50 | IC50 (read-out: pIC50 (converted))
Nc1nc(O)c2ncn([C@@H]3O[C@H](CO)[C@@H](O)[C@H]3F)c2n1 | > 20 µM | > 20 µM
CCOC(=O)C1=C(CN2CCOCC2)NC(c2nccs2)=NC1c1ccc(F)cc1Br (stereo unspecified) | > 20 µM | > 20 µM
O=c1c(-c2ccc(O)cc2)coc2c(C3O[C@H](CO)[C@@H](O)[C@H](O)[C@H]3O)c(O)ccc12 (stereo partly specified) | > 20 µM | > 20 µM
COc1ccn(C)c(=O)c1C#N [RICININE] | > 20 µM | > 20 µM
NC(=O)C(CCN1CCN2CCCC2C1)(c1ccccc1)c1ccccc1 (stereo unspecified) [PIROLAZAMIDE] | > 20 µM | > 20 µM
O=C(c1cc2ccccc2o1)N1CCN(Cc2ccccc2)CC1 [BEFURALINE] | > 20 µM | > 20 µM
NC[C@@H]1O[C@H](O[C@H]2[C@@H](O)[C@H](O[C@@H]3[C@@H](O)[C@H](N)C[C@H](N)[C@H]3O[C@H]3O[C@H](CN)[C@@H](O)[C@H](O)[C@H]3N)O[C@@H]2CO)[C@H](N)[C@@H](O)[C@@H]1O [FRAMYCETIN] | > 20 µM | > 20 µM
Cc1ccc(OCC(O)C(C)NC(C)C)c2c1CCC2 (stereo unspecified) [ZENIDOLOL] | > 20 µM | > 20 µM
CN1CCN(/C=C2\N=C3CN=C(c4ccccc4Cl)c4cc([N+](=O)[O-])ccc4N3C2=O)CC1 [LOPRAZOLAM] | > 20 µM | > 20 µM
O=C1CC[C@@](c2ccccc2)(C2CCN(Cc3ccccc3)CC2)C(=O)N1 [DEXETIMIDE] | > 20 µM | > 20 µM
CS(=O)(=O)c1ccc([C@@H](O)[C@@H](CO)NC(=O)C(Cl)Cl)cc1 [THIAMPHENICOL] | > 20 µM | > 20 µM
CN(C)CCC(c1ccccc1)c1ccccn1 (stereo unspecified) [PHENIRAMINE] | > 20 µM | > 20 µM
CON(C)Cc1ccc(O)c2c1C[C@H]1C[C@H]3[C@H](N(C)C)C(O)=C(C(N)=O)C(=O)[C@@]3(O)C(O)=C1C2=O [SARECYCLINE] | > 20 µM | > 20 µM
CCCc1nc2c(C)cc(-c3nc4ccccc4n3C)cc2n1Cc1ccc(-c2ccccc2C(=O)O)cc1 | > 20 µM | > 20 µM
CCC(Cc1c(I)cc(I)c(N)c1I)C(=O)O (stereo unspecified) [IOPANOIC ACID] | > 20 µM | > 20 µM
C#C[C@]1(O)CC[C@H]2[C@@H]3CCC4=CC(=O)CCC4=C3C=C[C@@]21CC [GESTRINONE] | > 20 µM | > 20 µM
C=CCC1(C(C)CCC)C(=O)NC(=O)NC1=O (stereo unspecified) [SECOBARBITAL] | > 20 µM | > 20 µM
Cc1c(C(=O)NN2CCCCC2)nn(-c2ccc(Cl)cc2Cl)c1-c1ccc(Cl)cc1 [RIMONABANT] | > 20 µM | > 20 µM
CCCCN(CCCC)CCCOc1c(C)cc(C(=O)c2cc(=O)c3ccccc3o2)cc1C [BUCROMARONE] | > 20 µM | > 20 µM
[2H]C([2H])([2H])OCCCN1CCC(NC(=O)c2cc(Cl)c(N)c3c2OCC3)CC1 | > 20 µM | > 20 µM
NC(=O)C[S+]([O-])C(c1ccccc1)c1ccccc1 (stereo unspecified) [MODAFINIL] | > 20 µM | > 20 µM
CC(C)(C)NC(=O)[C@@H]1CN(Cc2cccnc2)CCN1C[C@@H](O)C[C@@H](Cc1ccccc1)C(=O)N[C@H]1c2ccccc2C[C@H]1O | > 10 µM | > 10 µM
c1ccc([C@H]2CN3CCSC3=N2)cc1 [LEVAMISOLE] | > 20 µM | > 20 µM

SMILES | IC50 | IC50 (read-out: pIC50 (converted))
CO[C@H]1C(O)C[C@H](O[C@H]2C(O)C[C@H](O[C@H]3C(O)C[C@H](OC4CC[C@@]5(C)C(CCC6C5CC(O)[C@]5(C)[C@@H](C7=CC(=O)OC7)CCC65O)C4)OC3C)OC2C)OC1C (stereo partly specified) | > 20 µM | > 20 µM
CC1(C)C(C=C(Cl)Cl)C1C(=O)OC(C#N)c1cccc(Oc2ccccc2)c1 (stereo not drawn) [ALPHA-CYPERMETHRIN] | > 20 µM | > 20 µM
CN1C(=O)/C(=N/NC(N)=S)c2ccccc21 | > 20 µM | > 20 µM
O=C(NCNC(=O)NC1C(=O)NC(=O)N1CO)NC1C(=O)NC(=O)N1CO (stereo unspecified) | > 20 µM | > 20 µM
Cc1occc(=O)c1O [MALTOL] | > 20 µM | > 20 µM
NC(=O)c1cnccn1 [PYRAZINAMIDE] | > 20 µM | > 20 µM
C/N=C(\NS(=O)(=O)c1ccc(Cl)cc1)N1C[C@@H](c2ccccc2)C(c2ccc(Cl)cc2)=N1 (racemic) | > 20 µM | > 20 µM
CCCC(=O)O[C@]1(C(=O)CCl)C(C)CC2C3CCC4=CC(=O)C=CC4(C)[C@@]3(F)C(=O)CC21C (stereo partly specified) | > 20 µM | > 20 µM
COc1c(C)c2c(c(O)c1C/C=C(\C)CCC(=O)O)C(=O)OC2 [MYCOPHENOLIC ACID] | > 20 µM | > 20 µM
O=C(NCCN1CCOCC1)c1ccc(Cl)cc1 [MOCLOBEMIDE] | > 20 µM | > 20 µM
CC(=O)N[C@@H]1[C@@H](O[C@H](C)C(=O)O)[C@H](O)[C@@H](CO)O[C@@H]1O | > 20 µM | > 20 µM
CN(C)N=Nc1ccc(C(=O)O)cc1 | > 20 µM | > 20 µM
C[N+]1(C)[C@@H]2C[C@@H](OC(=O)[C@H](CO)c3ccccc3)C[C@H]1[C@@H]1O[C@@H]12 [METHSCOPOLAMINE] | > 20 µM | > 20 µM
CCNC(C)Cc1cccc(C(F)(F)F)c1 (stereo unspecified) [FENFLURAMINE] | > 20 µM | > 20 µM
COc1ccc(CC(C)N)cc1 (stereo unspecified) [PARA-METHOXYAMPHETAMINE] | > 20 µM | > 20 µM
CC(=O)OC1CCC2C3CC[C@H]4CC(=O)C(C)=CC4(C)C3CCC12C (stereo partly specified) | > 20 µM | > 20 µM
[2H]C1([2H])[C@H]2C[C@@H]([C@@H]1Oc1ccc(C(F)(F)F)cn1)N(C(=O)c1cccc(F)c1-c1ncccn1)C2([2H])[2H] | > 20 µM | > 20 µM
CCOC(=O)c1ncc2[nH]c3cccc(OCc4ccccc4)c3c2c1COC | > 20 µM | > 20 µM
CCOC(=O)C1=C(COCCN)NC(C)=C(C(=O)OC)C1c1ccccc1Cl (stereo unspecified) [AMLODIPINE] | > 20 µM | > 20 µM
CC(=O)Nc1ccc(OCC(O)CNC(C)C)cc1 (stereo unspecified) [PRACTOLOL] | > 20 µM | > 20 µM
CCOP(=S)(OCC)Oc1ccc2c(C)c(Cl)c(=O)oc2c1 [COUMAPHOS] | > 20 µM | > 20 µM
Clc1cccc(Cl)c1NC1=NCCN1 [CLONIDINE] | > 20 µM | > 20 µM

From ChEMBL document CHEMBL4651402, “Screening of ~5500 FDA-approved drugs and clinical candidates for anti-SARS-CoV-2 activity” (2021)
